In data set [1] the target is T1, M1 muscarinic receptor (Homo sapiens, UniProt P11229).
T1 construct: purchased PerkinElmer, Inc., Wellesley, Mass; host or cells: CHO cells
T1 sequence (P11229 1-460): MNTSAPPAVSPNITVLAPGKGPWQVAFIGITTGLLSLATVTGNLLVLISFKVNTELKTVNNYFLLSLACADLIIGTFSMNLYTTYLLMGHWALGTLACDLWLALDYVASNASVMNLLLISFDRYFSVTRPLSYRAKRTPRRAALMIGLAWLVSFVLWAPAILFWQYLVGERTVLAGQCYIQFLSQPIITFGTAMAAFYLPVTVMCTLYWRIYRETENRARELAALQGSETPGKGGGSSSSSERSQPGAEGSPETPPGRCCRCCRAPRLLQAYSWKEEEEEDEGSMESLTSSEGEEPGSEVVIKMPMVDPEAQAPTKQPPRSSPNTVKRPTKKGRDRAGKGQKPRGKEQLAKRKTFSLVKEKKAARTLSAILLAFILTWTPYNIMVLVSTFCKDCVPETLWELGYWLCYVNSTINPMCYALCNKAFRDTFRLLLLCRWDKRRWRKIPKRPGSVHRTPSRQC
As to conditions: reference compounds; read-out: Ki of reference compounds, M1 binding assay; cited from earlier work.

A further data set relates to male Wistar rats. The data set can be described thus: Sleep-wakefulness monitoring (SCORE-2000, EEG/EMG) after oral dosing at CT-18. The data set is classed as in vivo, rat. Here is the method: Food and water were available ad libitum.
Treatments were administered orally as a bolus.
A parallel group study design was employed.
The results of NREM and LUSB parameters were measured for the loxapine derivatives such as Compounds 1, 2, 3, 5, 6, 7, 8, 9, 10, 12, 14, 17, 19, 20, 21, 23, 30, 31, 32, 39, 40, 42, 46, 50, 51, 52, 54, 56, and 58 and other compounds listed in Table 1.

The next data set concerns the target hERG channel (Homo sapiens, UniProt Q12809). In words: hERG channel current block, whole cell recording in HEK293 cells. It counts as cell-based. Conditions: HEK293 cells expressing hERG. Here is the method: Other in vitro selection criteria for loxapine analogs of the invention includes hERG binding.
(Brown and Rampe (2000)).
In one embodiment of the HERG assay, the positive control (i.e., reference compound) is terfenadine (Sigma, St. Louis Mo.), which has been shown, at a concentration of 60 nM, to block HERG current by approximately 75%. Test compounds are delivered in HEPES-buffered physiological saline (HB-PS)+0.1% dimethyl sulfoxide (DMSO).
Clin. Exp. Allergy 29 Suppl 3, 174-181.
If the final DMSO concentration must be greater than 0.3%, to reach a specified test article concentration, a separate vehicle control test with an n>2 was performed at the highest final DMSO concentration.
Each cell acted as its own control. […] One concentration of the positive control article (60 nM terfenadine) was applied to two cells (n≧2).
For orientation: Block of hERG is tested as a sign of cardiac risk.

For data set [2], the target named is T2, H1 histamine receptor (Bos taurus, UniProt P30546).
T2 construct: the receptors were obtained from bovine cerebellar membrane tissue; from tissue; host or cells: bovine cerebellar membranes
T2 sequence (P30546 whole entry): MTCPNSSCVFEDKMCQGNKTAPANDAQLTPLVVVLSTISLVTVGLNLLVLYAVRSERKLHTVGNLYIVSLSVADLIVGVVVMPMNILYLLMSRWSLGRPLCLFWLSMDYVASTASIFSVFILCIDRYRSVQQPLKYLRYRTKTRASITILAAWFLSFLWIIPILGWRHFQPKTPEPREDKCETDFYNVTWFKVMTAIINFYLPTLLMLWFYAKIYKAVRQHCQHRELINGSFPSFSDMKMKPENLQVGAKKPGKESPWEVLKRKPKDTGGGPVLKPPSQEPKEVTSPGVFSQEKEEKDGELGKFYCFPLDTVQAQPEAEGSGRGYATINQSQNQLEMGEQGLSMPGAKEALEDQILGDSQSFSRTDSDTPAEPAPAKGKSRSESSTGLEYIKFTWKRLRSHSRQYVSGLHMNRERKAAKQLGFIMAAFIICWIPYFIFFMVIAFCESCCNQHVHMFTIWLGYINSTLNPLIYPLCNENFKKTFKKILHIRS
The data set can be described thus: H1 competitive binding assay, [3H]pyrilamine, bovine cerebellar membranes. Conditions: bovine cerebellar membrane.

Data set [3] deals with H1 histamine receptor (Rattus norvegicus, UniProt P31390). The data set can be described thus: H1 binding, rat (footnote of Table 8). Here is the method: (§1) Binding assays were performed using the disclosed sleep-inducing agents and derivatives selected from those listed in Table 1 in competitive binding assays with known standards for the H1 histamine receptor, and the M1, M2, and M3 muscarinic receptors, alpha 1 and alpha 2 receptors, and D1 and D2 receptors.
H1 histamine receptor (Rattus norvegicus, UniProt P31390), sequence (P31390 whole entry): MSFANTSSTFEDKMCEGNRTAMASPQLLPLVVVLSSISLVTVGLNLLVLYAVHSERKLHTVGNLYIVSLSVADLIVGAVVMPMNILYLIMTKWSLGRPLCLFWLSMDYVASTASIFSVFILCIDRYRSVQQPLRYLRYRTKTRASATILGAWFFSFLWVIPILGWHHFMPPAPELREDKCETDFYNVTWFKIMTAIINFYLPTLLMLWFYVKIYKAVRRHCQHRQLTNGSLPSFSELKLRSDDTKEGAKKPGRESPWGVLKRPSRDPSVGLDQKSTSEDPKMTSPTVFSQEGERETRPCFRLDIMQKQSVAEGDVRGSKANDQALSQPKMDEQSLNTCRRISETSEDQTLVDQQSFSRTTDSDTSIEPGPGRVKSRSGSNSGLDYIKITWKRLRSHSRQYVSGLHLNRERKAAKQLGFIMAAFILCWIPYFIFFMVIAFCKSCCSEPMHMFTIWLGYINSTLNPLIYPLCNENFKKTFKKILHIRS

The target in data set [4] is H1 histamine receptor (Homo sapiens, UniProt P35367). The data set can be described thus: H1 binding, human (footnote of Table 8). Here is the method: as §1
H1 histamine receptor (Homo sapiens, UniProt P35367), sequence (P35367 whole entry): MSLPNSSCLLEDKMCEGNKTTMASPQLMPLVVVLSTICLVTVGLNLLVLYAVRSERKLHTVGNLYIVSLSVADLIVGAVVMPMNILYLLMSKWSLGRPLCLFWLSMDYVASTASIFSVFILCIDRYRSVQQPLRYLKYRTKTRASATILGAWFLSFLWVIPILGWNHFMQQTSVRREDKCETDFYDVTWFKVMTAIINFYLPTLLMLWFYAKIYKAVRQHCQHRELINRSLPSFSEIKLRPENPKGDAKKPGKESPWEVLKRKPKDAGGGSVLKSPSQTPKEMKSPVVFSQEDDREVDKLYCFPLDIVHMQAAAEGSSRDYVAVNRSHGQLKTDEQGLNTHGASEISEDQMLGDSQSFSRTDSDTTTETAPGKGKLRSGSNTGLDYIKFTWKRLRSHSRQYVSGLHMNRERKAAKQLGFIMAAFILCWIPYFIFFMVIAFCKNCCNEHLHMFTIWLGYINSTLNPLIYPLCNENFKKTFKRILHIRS
Data set [5] deals with T1, M1 muscarinic receptor. In words: M1 binding assay, [3H]-scopolamine N-methyl chloride, CHO cells. Conditions: human recombinant.
Another data set addresses T3, M2 muscarinic receptor (Homo sapiens, UniProt P08172).
T3 construct: purchased PerkinElmer, Inc., Wellesley, Mass; host or cells: CHO cells
T3 sequence (P08172 1-466): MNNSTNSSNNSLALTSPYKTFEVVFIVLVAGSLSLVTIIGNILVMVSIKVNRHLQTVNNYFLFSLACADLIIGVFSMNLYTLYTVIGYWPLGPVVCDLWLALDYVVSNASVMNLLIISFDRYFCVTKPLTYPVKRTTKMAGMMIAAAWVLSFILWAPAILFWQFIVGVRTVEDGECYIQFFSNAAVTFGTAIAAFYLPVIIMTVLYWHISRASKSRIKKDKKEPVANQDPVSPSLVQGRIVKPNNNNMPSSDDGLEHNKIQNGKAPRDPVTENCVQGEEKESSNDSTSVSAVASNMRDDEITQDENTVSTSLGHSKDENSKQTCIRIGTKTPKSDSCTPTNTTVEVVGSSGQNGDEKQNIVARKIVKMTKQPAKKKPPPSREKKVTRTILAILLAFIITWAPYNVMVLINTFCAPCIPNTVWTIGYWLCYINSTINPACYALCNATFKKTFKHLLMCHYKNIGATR
In words: M2 binding assay, [3H]-scopolamine N-methyl chloride, CHO cells. As to conditions: human recombinant.

For another data set, the target named is T4, M3 muscarinic receptor (Homo sapiens, UniProt P20309).
T4 construct: purchased PerkinElmer, Inc., Wellesley, Mass; host or cells: CHO cells
T4 sequence (P20309 whole entry): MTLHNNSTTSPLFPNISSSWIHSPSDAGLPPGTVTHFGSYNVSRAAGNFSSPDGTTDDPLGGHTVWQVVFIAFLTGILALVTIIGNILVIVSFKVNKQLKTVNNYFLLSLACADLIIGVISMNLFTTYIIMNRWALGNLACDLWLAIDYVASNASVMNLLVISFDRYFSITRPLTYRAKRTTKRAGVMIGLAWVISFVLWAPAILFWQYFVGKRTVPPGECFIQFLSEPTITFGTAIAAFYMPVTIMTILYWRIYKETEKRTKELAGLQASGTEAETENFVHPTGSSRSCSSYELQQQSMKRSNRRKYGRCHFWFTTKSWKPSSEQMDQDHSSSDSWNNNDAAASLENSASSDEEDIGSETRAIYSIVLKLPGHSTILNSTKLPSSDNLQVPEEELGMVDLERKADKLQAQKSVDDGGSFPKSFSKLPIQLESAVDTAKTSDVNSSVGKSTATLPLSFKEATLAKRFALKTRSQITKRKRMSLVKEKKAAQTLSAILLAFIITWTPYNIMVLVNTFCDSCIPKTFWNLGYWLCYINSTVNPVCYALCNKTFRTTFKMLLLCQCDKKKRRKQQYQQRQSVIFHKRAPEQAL
In words: M3 binding assay, [3H]-scopolamine N-methyl chloride, CHO cells. As to conditions: human recombinant.

For another data set, the target named is alpha 1 receptors. The data set can be described thus: Alpha 1 receptor binding assay. Conditions: read-out: Ki Alpha1. Here is the method: as §1
For another data set, the target named is alpha 2 receptors. In words: Alpha 2 receptor binding assay. Conditions: read-out: Ki Alpha2. Here is the method: as §1
Data set [6] addresses Dopamine, D1 (Homo sapiens, UniProt P21728). The data set can be described thus: Dopamine D1 (human recombinant) binding assay. Here is the method:
as §1
Dopamine, D1 (human recombinant) binding assay was performed according to published procedures. See, e.g., Jarvie, et al. J. Recept Res., 13(1-4): 573-90 (1993); and Billard, et al. Life Sciences, 35(18): 1885-93 (1984), with modifications

Data set [7] deals with Dopamine, D1 (Rattus norvegicus, UniProt P18901). In words: Dopamine D1 binding, rat. Here is the method: as §1
Dopamine, D1 (Rattus norvegicus, UniProt P18901), sequence (P18901 whole entry): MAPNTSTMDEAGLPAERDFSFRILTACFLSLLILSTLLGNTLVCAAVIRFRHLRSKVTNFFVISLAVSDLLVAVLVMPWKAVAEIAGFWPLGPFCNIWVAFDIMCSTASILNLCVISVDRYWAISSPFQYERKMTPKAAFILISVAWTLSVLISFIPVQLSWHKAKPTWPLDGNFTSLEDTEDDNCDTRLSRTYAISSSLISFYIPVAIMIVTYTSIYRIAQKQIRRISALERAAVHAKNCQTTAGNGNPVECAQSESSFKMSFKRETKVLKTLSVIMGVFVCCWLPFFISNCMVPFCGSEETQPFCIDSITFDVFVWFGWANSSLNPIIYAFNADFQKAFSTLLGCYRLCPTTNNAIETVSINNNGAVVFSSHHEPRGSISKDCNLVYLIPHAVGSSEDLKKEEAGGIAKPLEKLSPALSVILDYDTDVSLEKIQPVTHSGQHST
For data set [8], the target named is D2 receptors (Homo sapiens, UniProt P14416). In words: Dopamine D2 binding assay (human). Here is the method: Binding assays were performed using the disclosed sleep-inducing agents and derivatives selected from those listed in Table 1 in competitive binding assays with known standards for the H1 histamine receptor, and the M1, M2, and M3 muscarinic receptors, alpha 1 and alpha 2 receptors, and D1 and D2 receptors. […]
D2 receptors (Homo sapiens, UniProt P14416), sequence (P14416 whole entry): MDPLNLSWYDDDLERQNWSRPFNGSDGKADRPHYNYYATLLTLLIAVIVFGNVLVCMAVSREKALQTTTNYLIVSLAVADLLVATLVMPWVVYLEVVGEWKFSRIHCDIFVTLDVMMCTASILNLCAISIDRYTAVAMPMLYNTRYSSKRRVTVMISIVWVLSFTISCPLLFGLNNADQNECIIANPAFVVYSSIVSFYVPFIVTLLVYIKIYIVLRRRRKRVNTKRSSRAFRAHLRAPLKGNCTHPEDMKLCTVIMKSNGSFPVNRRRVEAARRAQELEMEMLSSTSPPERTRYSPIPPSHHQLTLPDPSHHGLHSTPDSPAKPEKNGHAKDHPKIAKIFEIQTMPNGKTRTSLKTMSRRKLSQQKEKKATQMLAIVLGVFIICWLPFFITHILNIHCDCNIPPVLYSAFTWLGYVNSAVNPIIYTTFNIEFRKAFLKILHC

Data set [9] deals with D2 receptors (Rattus norvegicus, UniProt P61169). In words: Dopamine D2 binding, rat. Here is the method:
as §1

SMILES strings stand for the structures. pKi: −log10 of the molar value. Like-named read-outs stand apart in the source and are kept apart here.

Dopamine, D1 (Homo sapiens, UniProt P21728), sequence (P21728 whole entry): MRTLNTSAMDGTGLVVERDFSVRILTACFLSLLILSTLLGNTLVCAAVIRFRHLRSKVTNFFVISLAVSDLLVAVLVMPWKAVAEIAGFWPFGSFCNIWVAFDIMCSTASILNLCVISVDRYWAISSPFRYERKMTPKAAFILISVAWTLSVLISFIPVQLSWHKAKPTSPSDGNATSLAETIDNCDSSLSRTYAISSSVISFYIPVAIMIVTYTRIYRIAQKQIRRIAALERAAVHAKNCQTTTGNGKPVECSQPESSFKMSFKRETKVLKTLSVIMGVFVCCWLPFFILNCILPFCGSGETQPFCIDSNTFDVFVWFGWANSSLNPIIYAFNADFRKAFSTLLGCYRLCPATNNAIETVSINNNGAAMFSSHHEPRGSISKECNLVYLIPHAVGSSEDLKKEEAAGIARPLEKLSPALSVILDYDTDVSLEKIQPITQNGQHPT
D2 receptors (Rattus norvegicus, UniProt P61169), sequence (P61169 whole entry): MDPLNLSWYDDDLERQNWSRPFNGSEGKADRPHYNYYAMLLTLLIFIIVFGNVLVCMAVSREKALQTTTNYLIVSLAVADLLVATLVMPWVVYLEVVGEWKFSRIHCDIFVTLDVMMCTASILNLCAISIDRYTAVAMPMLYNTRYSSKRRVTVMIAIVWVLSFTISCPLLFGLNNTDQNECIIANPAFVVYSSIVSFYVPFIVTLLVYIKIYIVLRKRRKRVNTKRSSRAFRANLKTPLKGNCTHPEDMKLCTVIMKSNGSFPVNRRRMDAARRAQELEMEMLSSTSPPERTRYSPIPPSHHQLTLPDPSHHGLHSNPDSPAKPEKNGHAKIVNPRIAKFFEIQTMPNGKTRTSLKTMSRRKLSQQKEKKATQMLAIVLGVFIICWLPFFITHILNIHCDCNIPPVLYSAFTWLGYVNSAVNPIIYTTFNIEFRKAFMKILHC
hERG channel, sequence (Q12809 whole entry): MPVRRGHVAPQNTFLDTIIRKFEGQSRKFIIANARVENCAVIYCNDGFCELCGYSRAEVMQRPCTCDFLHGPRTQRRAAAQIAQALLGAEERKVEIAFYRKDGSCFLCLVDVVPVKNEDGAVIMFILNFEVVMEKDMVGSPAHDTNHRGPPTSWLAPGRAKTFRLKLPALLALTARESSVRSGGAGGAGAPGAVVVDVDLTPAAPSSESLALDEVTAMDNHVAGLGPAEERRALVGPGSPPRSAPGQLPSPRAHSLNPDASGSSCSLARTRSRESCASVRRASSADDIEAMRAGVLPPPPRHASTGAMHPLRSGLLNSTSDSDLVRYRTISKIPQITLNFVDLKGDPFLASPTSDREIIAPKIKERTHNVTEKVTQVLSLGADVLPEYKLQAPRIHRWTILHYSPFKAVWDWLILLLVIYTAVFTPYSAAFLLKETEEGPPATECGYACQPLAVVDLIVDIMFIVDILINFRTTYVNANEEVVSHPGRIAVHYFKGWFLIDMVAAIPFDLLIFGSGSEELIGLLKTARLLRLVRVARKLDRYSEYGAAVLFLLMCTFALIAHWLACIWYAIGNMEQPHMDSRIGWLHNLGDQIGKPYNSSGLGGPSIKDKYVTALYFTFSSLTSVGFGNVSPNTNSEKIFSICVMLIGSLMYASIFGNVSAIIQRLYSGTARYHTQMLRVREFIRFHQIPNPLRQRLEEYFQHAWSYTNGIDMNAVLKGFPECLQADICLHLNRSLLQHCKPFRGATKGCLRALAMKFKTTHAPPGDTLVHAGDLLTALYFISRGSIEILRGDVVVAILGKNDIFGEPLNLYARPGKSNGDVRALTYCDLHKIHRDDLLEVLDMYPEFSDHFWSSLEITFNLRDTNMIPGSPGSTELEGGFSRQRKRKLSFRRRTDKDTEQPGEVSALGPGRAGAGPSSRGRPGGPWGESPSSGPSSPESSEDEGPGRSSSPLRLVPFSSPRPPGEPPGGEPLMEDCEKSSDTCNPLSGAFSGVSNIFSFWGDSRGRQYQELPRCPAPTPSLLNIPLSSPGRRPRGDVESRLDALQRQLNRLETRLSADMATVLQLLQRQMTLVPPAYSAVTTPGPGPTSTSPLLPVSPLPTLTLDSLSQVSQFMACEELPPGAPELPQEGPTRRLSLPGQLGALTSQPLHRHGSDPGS

Broadly, the pKi is the negative decadic logarithm of the Ki, by convention in mol/L. In the case of `C[N+]1(C)CCC(OC(=O)C(c2ccccc2)c2ccccc2)CC1` [4-DAMP methiodide], the pKi on M1 muscarinic receptor [1] was 9.57.
In the data set with male Wistar rats (dose 3 mg/kg), `CC(C)(CN1CCN(C2=Nc3ccccc3Oc3ccccc32)CC1)C(=O)O` [Compound 1] yielded an NREM of 39 ± 6 min. Besides, on hERG channel, the “hERG at 10 micromolar (% blocking of the hERG channel)” value is reported as 6.2%. Also, the pKi at H1 histamine receptor [2] was 7.39; on H1 histamine receptor [3], 7.94; at H1 histamine receptor [4], 7.63; on M1 muscarinic receptor [5], below 5.00; on M2 muscarinic receptor it was below 5.00; at M3 muscarinic receptor it was below 5.00. The pKi is below 5.00 on alpha 1 receptors; below 5.00 on alpha 2 receptors; below 5.00 on Dopamine, D1 [6]; below 5.00 at Dopamine, D1 [7]; below 5.00 at D2 receptors [8]; below 5.00 at D2 receptors [9].
Turning to `CC(C)(CN1CCN(C2=Nc3ccccc3Oc3ccc(F)cc32)CC1)C(=O)O` [Compound 4], on hERG channel, the “hERG at 10 micromolar (% blocking of the hERG channel)” value is listed as 8%. Also, the pKi is below 5.00 on M1 muscarinic receptor [5]; below 5.00 on M3 muscarinic receptor; below 5.00 on alpha 1 receptors; below 5.00 at alpha 2 receptors; below 5.00 on Dopamine, D1 [6]; below 5.00 at D2 receptors [8]. Further, the pKi at D2 receptors [9] is 5.56.
Take `COc1ccc2c(c1)N=C(N1CCN(CC(C)(C)C(=O)O)CC1)c1ccccc1O2` [Compound 21]: at hERG channel, the “hERG at 10 micromolar (% blocking of the hERG channel)” value came out at 0%. In addition, the negative logarithm of the Ki (pKi) on H1 histamine receptor [2] was 7.24; on M1 muscarinic receptor [5], below 5.00; at M2 muscarinic receptor it was below 5.00; on M3 muscarinic receptor, below 5.00; on alpha 1 receptors, below 5.00; at alpha 2 receptors it was below 5.00. Further, the pKi is below 5.00 on Dopamine, D1 [6] and below 5.00 on D2 receptors [8].
For the compound `COc1ccc2c(c1)N=C(N1CCN(CC(C)(C)C(=O)O)CC1)c1cc(OC)ccc1O2` [Compound 23], the “hERG at 10 micromolar (% blocking of the hERG channel)” value on hERG channel was found to be 8.90%. In addition, the negative-log Ki (pKi) at H1 histamine receptor [2] was 6.87; at M1 muscarinic receptor [5], below 5.00; at M2 muscarinic receptor, below 5.00; at M3 muscarinic receptor it was below 5.00; on alpha 1 receptors, below 5.00; on alpha 2 receptors, below 5.00. The negative-log Ki (pKi) on Dopamine, D1 [6] is below 5.00; at D2 receptors [8] it was below 5.00.
In the case of `Cc1ccc2c(c1)Oc1ccccc1C(N1CCN(CC(C)(C)C(=O)O)CC1)=N2` [Compound 30], on hERG channel, the “hERG at 10 micromolar (% blocking of the hERG channel)” value is on record as 4.50%. Also, the pKi on H1 histamine receptor [2] was 7.04; at M1 muscarinic receptor [5] it was below 5.00; on M2 muscarinic receptor, below 5.00; on M3 muscarinic receptor, below 5.00; on alpha 1 receptors, below 5.00; at alpha 2 receptors, below 5.00. The pKi is 5.30 on Dopamine, D1 [6] and below 5.00 at D2 receptors [8].
Regarding `COc1ccc2c(c1)Oc1ccccc1C(N1CCN(CC(C)(C)C(=O)O)CC1)=N2` [Compound 32], on hERG channel, the “hERG at 10 micromolar (% blocking of the hERG channel)” value is recorded as 1.60%. The pKi is 5.42 on H1 histamine receptor [2]; below 5.00 on M1 muscarinic receptor [5]; below 5.00 at M2 muscarinic receptor; below 5.00 on M3 muscarinic receptor; below 5.00 on alpha 1 receptors; below 5.00 on alpha 2 receptors. Also, the pKi is below 5.00 at Dopamine, D1 [6] and below 5.00 on D2 receptors [8].
Take `COc1ccc2c(c1)Oc1ccccc1N=C2N1CCN(CC(C)(C)C(=O)O)CC1` [Compound 39]: the “hERG at 10 micromolar (% blocking of the hERG channel)” value on hERG channel is listed as 61.40%. The pKi was 7.01 on H1 histamine receptor [2]; below 5.00 on M1 muscarinic receptor [5]; below 5.00 at M2 muscarinic receptor; below 5.00 at M3 muscarinic receptor; below 5.00 on alpha 1 receptors; below 5.00 at alpha 2 receptors. In addition, the pKi on Dopamine, D1 [6] is below 5.00; at D2 receptors [8], below 5.00.
Consider `CC(C)(CN1CCN(C2=Nc3ccccc3Oc3ccccc32)CC1)C(=O)NS(C)(=O)=O` [Compound 40], for which the NREM in the data set on male Wistar rats (dose 30 mg/kg) worked out at 43 ± 4 min. The “hERG at 10 micromolar (% blocking of the hERG channel)” value on hERG channel stood at 5.6%. Moreover, the negative logarithm of the Ki (pKi) was 7.64 at H1 histamine receptor [2]; 7.23 at H1 histamine receptor [3]; 7.50 at H1 histamine receptor [4]; below 5.00 at M1 muscarinic receptor [5]; below 5.00 on M2 muscarinic receptor; below 5.00 on M3 muscarinic receptor. The pKi was below 5.00 at alpha 1 receptors; below 5.00 at alpha 2 receptors; below 5.00 on Dopamine, D1 [6]; below 5.00 on Dopamine, D1 [7]; 5.73 at D2 receptors [8]; below 5.00 at D2 receptors [9].
Take `Cc1ccc2c(c1)C(N1CCN(CC(C)(C)C(=O)O)CC1)=Nc1cc(Br)ccc1O2` [Compound 50]: the “hERG at 10 micromolar (% blocking of the hERG channel)” value on hERG channel is 45.00%. Besides, the pKi on H1 histamine receptor [2] was 7.50; at M1 muscarinic receptor [5] it was below 5.00; at M2 muscarinic receptor it was below 5.00; on M3 muscarinic receptor, below 5.00; at alpha 1 receptors, 6.23; on alpha 2 receptors, 5.71. Also, the pKi on Dopamine, D1 [6] is 5.94; at D2 receptors [8], 6.44.
As to `COc1ccc2c(c1)C(N1CCN(CC(C)(C)C(=O)O)CC1)=Nc1cc(Br)ccc1O2` [Compound 51], the “hERG at 10 micromolar (% blocking of the hERG channel)” value at hERG channel was found to be 32%. The pKi is 7.56 on H1 histamine receptor [2]; below 5.00 at M1 muscarinic receptor [5]; below 5.00 at M2 muscarinic receptor; below 5.00 on M3 muscarinic receptor; 6.83 on alpha 1 receptors; 6.02 on alpha 2 receptors. Also, the negative-log Ki (pKi) at Dopamine, D1 [6] was 5.98; on D2 receptors [8] it was 6.77.

The record behind these values is patent US20060063755A1, “Loxapine analogs and methods of use thereof” (priority 2004, published 2006).
